The text below walks through data of patent US10899793B2, “Melanocortin ligands and methods of use thereof” (priority 2016, dated 2021).

Assay [1] deals with T1, mMC3R (Mus musculus, UniProt P33033). To be noted: Table 1; Schild analysis, pA2 = -Log(Ki); Full Agonist = full dose-response, No Activity = no shift in EC50.
In assay [2] the target is T2, mMC4R (Mus musculus, UniProt P56450). The assay is described as follows: AlphaScreen cAMP agonist assay at mMC4R. The settings on record: read-out: mMC4R Agonist, percent of the NDP-MSH maximal positive control.
T2 sequence (P56450 whole entry): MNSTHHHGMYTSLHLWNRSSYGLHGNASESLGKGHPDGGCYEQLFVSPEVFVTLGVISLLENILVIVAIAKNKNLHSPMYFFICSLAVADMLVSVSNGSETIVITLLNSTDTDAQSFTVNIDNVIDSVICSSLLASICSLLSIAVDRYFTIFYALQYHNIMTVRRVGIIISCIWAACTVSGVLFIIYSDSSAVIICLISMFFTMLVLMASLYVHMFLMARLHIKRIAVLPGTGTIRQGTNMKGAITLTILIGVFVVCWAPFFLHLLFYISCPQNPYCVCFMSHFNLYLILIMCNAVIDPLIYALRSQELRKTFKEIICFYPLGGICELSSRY
In another assay the target is mMC5R (Mus musculus, UniProt P41149). Kind of assay: AlphaScreen cAMP agonist assay at mMC5R. The settings on record: read-out: percent of the NDP-MSH maximal positive control, Table 2.
Sequence of mMC5R (P41149 whole entry): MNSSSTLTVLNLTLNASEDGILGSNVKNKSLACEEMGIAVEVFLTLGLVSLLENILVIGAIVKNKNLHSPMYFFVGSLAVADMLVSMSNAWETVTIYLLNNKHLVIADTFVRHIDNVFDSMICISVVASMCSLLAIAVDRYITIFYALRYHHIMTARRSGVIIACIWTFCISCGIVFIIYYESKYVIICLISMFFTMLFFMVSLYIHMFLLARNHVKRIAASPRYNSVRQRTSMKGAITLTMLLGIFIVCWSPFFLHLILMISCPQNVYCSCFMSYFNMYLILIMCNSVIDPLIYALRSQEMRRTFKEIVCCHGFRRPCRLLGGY
Assay [3] addresses T2, mMC4R. To be noted: for mMC4R Antagonist pA2 ± SEM: Table 1, Schild analysis, pA2 = -Log(Ki).
For assay [4], the target named is T1, mMC3R. The assay is described as follows: AlphaScreen cAMP agonist assay at mMC3R. To be noted: Table 1; @ 100 μM.

Square brackets hold non-standard residues; d marks the D form. Peptide text beside a SMILES is read from it. Bip = N[C@@H](Cc1ccc(-c2ccccc2)cc1)C(=O)O; dPhe(4-I) = N[C@H](Cc1ccc(I)cc1)C(=O)O; 2Nal = N[C@@H](Cc1ccc2ccccc2c1)C(=O)O; d2Nal = N[C@H](Cc1ccc2ccccc2c1)C(=O)O; Bta = N[C@@H](Cc1csc2ccccc12)C(=O)O; Tic = O=C(O)[C@@H]1Cc2ccccc2CN1

T1 sequence (P33033 whole entry): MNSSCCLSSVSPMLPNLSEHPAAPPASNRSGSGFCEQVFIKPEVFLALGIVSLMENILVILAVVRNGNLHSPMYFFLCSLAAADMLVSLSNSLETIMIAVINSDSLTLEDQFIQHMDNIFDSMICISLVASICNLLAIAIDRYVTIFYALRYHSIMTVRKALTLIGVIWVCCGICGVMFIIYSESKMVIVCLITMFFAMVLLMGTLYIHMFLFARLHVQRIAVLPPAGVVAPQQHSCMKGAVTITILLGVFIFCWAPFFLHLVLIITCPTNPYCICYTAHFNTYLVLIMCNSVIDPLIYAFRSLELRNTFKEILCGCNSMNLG

`CC(=O)N1Cc2ccccc2C[C@H]1C(=O)N[C@@H](CCCNC(=N)N)C(=O)N[C@H](Cc1ccc(I)cc1)C(=O)N[C@H](Cc1ccc2ccccc2c1)C(N)=O` [SKY4-48-46, Ac-Tic-Arg-(pI)DPhe-DNal(2′)-NH2] (Ac-[Tic]R[dPhe(4-I)][d2Nal]-NH2): at mMC3R [1], the “mMC3R Antagonist pA2 ± SEM” value is “No Activity”. Besides, the values for the activation at 100 µM on mMC4R [2] and on mMC5R were 33% and 74%, respectively. Besides, the “mMC4R Antagonist pA2 ± SEM” value on mMC4R [3] is given as “No Activity”. Further, the “mMC3R Agonist, percent of the NDP-MSH maximal positive control” value (from here on “mMC3R Agonist, percent”) at mMC3R [4] stood at 42% @ 100 μM.

For `CC(=O)N[C@@H](Cc1ccc(-c2ccccc2)cc1)C(=O)N[C@@H](CCCNC(=N)N)C(=O)N[C@H](Cc1ccc(I)cc1)C(=O)N[C@@H](Cc1ccc(-c2ccccc2)cc1)C(N)=O` [SKY4-48-4, Ac-Bip-Arg-(pI)DPhe-Bip-NH2] (Ac-[Bip]R[dPhe(4-I)][Bip]-NH2), at mMC3R [1], the “mMC3R Antagonist pA2 ± SEM” value was “No Activity”. At mMC4R [2], the activation at 100 µM was 24%. For the same compound, the “mMC4R Antagonist pA2 ± SEM” value at mMC4R [3] is recorded as “No Activity”.

As for `CC(=O)N[C@H](Cc1ccc2ccccc2c1)C(=O)N[C@@H](CCCNC(=N)N)C(=O)N[C@H](Cc1ccc(I)cc1)C(=O)N[C@@H](Cc1ccc2ccccc2c1)C(N)=O` [SKY5-146-5, Ac-DNal(2′)-Arg-(pI)DPhe-Nal(2′)-NH2] (Ac-[d2Nal]R[dPhe(4-I)][2Nal]-NH2), the activation at 100 µM came to 39% at mMC4R [2] and 40% on mMC5R. On mMC3R [4], the “mMC3R Agonist, percent” value was 43% @ 100 μM.

Regarding `CC(=O)N[C@H](Cc1ccc2ccccc2c1)C(=O)N[C@@H](CCCNC(=N)N)C(=O)N[C@H](Cc1ccc(I)cc1)C(=O)N[C@H](Cc1ccc2ccccc2c1)C(N)=O` [SKY4-48-49, Ac-DNal(2′)-Arg-(pI)DPhe-DNal(2′)-NH2] (Ac-[d2Nal]R[dPhe(4-I)][d2Nal]-NH2), the activation at 100 µM was found to be 37% at mMC4R [2] and 43% at mMC5R. Also, the “mMC3R Agonist, percent” value on mMC3R [4] amounted to 40% @ 100 μM.

As for `CC(=O)N[C@H](Cc1ccc2ccccc2c1)C(=O)N[C@@H](CCCNC(=N)N)C(=O)N[C@H](Cc1ccc(I)cc1)C(=O)N[C@@H](Cc1ccc(-c2ccccc2)cc1)C(N)=O` [SKY5-146-2, Ac-DNal(2′)-Arg-(pI)DPhe-Bip-NH2] (Ac-[d2Nal]R[dPhe(4-I)][Bip]-NH2), the activation at 100 µM at mMC4R [2] stood at 42%. Further, the “antagonist pA2 at the mMC4R” value at mMC4R [3] is listed as 6.6. The “mMC3R Agonist, percent” value on mMC3R [4] is given as 30% @ 100 μM.

Consider `CC(=O)N[C@@H](Cc1c[nH]cn1)C(=O)N[C@@H](CCCNC(=N)N)C(=O)N[C@H](Cc1ccc(I)cc1)C(=O)N[C@@H](Cc1ccc(-c2ccccc2)cc1)C(N)=O` [SKY4-48-3, Ac-His-Arg-(pI)DPhe-Bip-NH2] (Ac-HR[dPhe(4-I)][Bip]-NH2), for which the “mMC3R Antagonist pA2 ± SEM” value on mMC3R [1] is listed as “No Activity”. Moreover, the activation at 100 µM on mMC4R [2] was 43%. Moreover, the “mMC4R Antagonist pA2 ± SEM” value at mMC4R [3] is “No Activity”. In addition, the “mMC3R Agonist, percent” value at mMC3R [4] is 53% @ 100 μM.

With `CC(=O)N[C@@H](Cc1csc2ccccc12)C(=O)N[C@@H](CCCNC(=N)N)C(=O)N[C@H](Cc1ccc(I)cc1)C(=O)N[C@@H](Cc1ccc(-c2ccccc2)cc1)C(N)=O` [SKY4-48-5, Ac-3Bal-Arg-(pI)DPhe-Bip-NH2] (Ac-[Bta]R[dPhe(4-I)][Bip]-NH2), on mMC3R [1], the “mMC3R Antagonist pA2 ± SEM” value is given as “No Activity”. Further, the activation at 100 µM at mMC4R [2] was 35%. Besides, on mMC4R [3], the “mMC4R Antagonist pA2 ± SEM” value was “No Activity”. The “mMC3R Agonist, percent” value at mMC3R [4] turned out to be 51% @ 100 μM.

As for `CC(=O)N[C@@H](Cc1c[nH]cn1)C(=O)N[C@@H](CCCNC(=N)N)C(=O)N[C@H](Cc1ccc(I)cc1)C(=O)N[C@H](Cc1ccc2ccccc2c1)C(N)=O` [SKY4-48-43, Ac-His-Arg-(pI)DPhe-DNal(2′)-NH2] (Ac-HR[dPhe(4-I)][d2Nal]-NH2), on mMC3R [1], the “mMC3R Antagonist pA2 ± SEM” value was “Full Agonist”. Further, the results for the activation at 100 µM at mMC4R [2] and at mMC5R were 50% and 47%, respectively.
